# Reference: ChEMBL document CHEMBL3885881, “DrugMatrix”
# Species on record: Rattus norvegicus
# Assay: DrugMatrix - Regimen: Daily Repeat
# Assay type: toxicity, organism-based, Sprague-Dawley
# Set-up: regimen Daily Repeat, gender Male, age 6-8 weeks
# Conditions: in vivo, iv, vehicle 100 % SALINE; for ABSOLUTE BASOPHIL / ABSOLUTE EOSINOPHIL / ABSOLUTE LYMPHOCYTE / ABSOLUTE MONOCYTE / ABSOLUTE SEGMENTED NEUTROPHIL / BASOPHIL / EOSINOPHIL / ERYTHROCYTE COUNT / HEMATOCRIT / HEMOGLOBIN / LEUKOCYTE COUNT / LYMPHOCYTE / MEAN CORPUSCULAR HEMOGLOBIN / MEAN CORPUSCULAR HEMOGLOBIN CONCENTRATION / MEAN CORPUSCULAR VOLUME / MONOCYTE / NEUTROPHIL / NUCLEATED RED BLOOD CELLS / PLATELET COUNT: tissue Blood; for ALANINE AMINOTRANSFERASE / ALBUMIN / ALKALINE PHOSPHATASE / ASPARTATE AMINOTRANSFERASE / BLOOD UREA NITROGEN / CARBON DIOXIDE / CHLORIDE / CHOLESTEROL / CREATINE PHOSPHOKINASE / CREATININE / GLUCOSE / LACTATE DEHYDROGENASE / LIPASE / PHOSPHORUS / POTASSIUM / SODIUM / TOTAL BILIRUBIN / TOTAL PROTEIN / URIC ACID: tissue Plasma
# [1] = 0 mg/kg, 72 h, dose level Control, time 3 day
# [2] = 0 mg/kg, 120 h, dose level Control, time 5 day
# [3] = 0.05 mg/kg, 72 h, dose level Low, time 3 day
# [4] = 0.05 mg/kg, 120 h, dose level Low, time 5 day
compound,measurement,setting,value
CC[C@]1(O)C[C@H]2CN(CCc3c([nH]c4ccccc34)[C@@](C(=O)OC)(c3cc4c(cc3OC)N(C=O)[C@H]3[C@@](O)(C(=O)OC)[C@H](OC(C)=O)[C@]5(CC)C=CCN6CC[C@]43[C@@H]65)C2)C1 [VINCRISTINE],ABSOLUTE BASOPHIL,[1],0 CELLS/uL
same,ABSOLUTE EOSINOPHIL,[1],0 CELLS/uL
same,ABSOLUTE LYMPHOCYTE,[1],7637.67 CELLS/uL
same,ABSOLUTE MONOCYTE,[1],67.83 CELLS/uL
same,ABSOLUTE SEGMENTED NEUTROPHIL,[1],661.17 CELLS/uL
same,BASOPHIL,[1],0%
same,EOSINOPHIL,[1],0%
same,ERYTHROCYTE COUNT,[1],5.38 x10E6/uL
same,HEMATOCRIT,[1],33.67%
same,HEMOGLOBIN,[1],12.88 G/DL
same,LEUKOCYTE COUNT,[1],8.37 x10E3/uL
same,LYMPHOCYTE,[1],91.17%
same,MEAN CORPUSCULAR HEMOGLOBIN,[1],23.95 pg
same,MEAN CORPUSCULAR HEMOGLOBIN CONCENTRATION,[1],38.23 G/DL
same,MEAN CORPUSCULAR VOLUME,[1],62.6 fL
same,MONOCYTE,[1],0.83%
same,NEUTROPHIL,[1],8%
same,NUCLEATED RED BLOOD CELLS,[1],0.17 /100WBC
same,PLATELET COUNT,[1],865 x10E3/uL
same,ALANINE AMINOTRANSFERASE,[1],51.67 u/L
same,ALBUMIN,[1],3.97 G/DL
same,ALKALINE PHOSPHATASE,[1],351.17 u/L
same,ASPARTATE AMINOTRANSFERASE,[1],82.33 u/L
same,BLOOD UREA NITROGEN,[1],15.17 mg/dL
same,CARBON DIOXIDE,[1],34.5 mmol/L
same,CHLORIDE,[1],100 MEQ/L
same,CHOLESTEROL,[1],80.33 mg/dL
same,CREATINE PHOSPHOKINASE,[1],316.5 u/L
same,CREATININE,[1],0.17 mg/dL
same,GLUCOSE,[1],149.17 mg/dL
same,LACTATE DEHYDROGENASE,[1],105.67 u/L
same,LIPASE,[1],9.5 u/L
same,PHOSPHORUS,[1],10.87 mg/dL
same,POTASSIUM,[1],5.47 MEQ/L
same,SODIUM,[1],144.2 MEQ/L
same,TOTAL BILIRUBIN,[1],0.2 mg/dL
same,TOTAL PROTEIN,[1],5.83 G/DL
same,URIC ACID,[1],0.83 mg/dL
same,ABSOLUTE BASOPHIL,[2],0 CELLS/uL
same,ABSOLUTE EOSINOPHIL,[2],0 CELLS/uL
same,ABSOLUTE LYMPHOCYTE,[2],6333.5 CELLS/uL
same,ABSOLUTE MONOCYTE,[2],38.83 CELLS/uL
same,ABSOLUTE SEGMENTED NEUTROPHIL,[2],661 CELLS/uL
same,BASOPHIL,[2],0%
same,EOSINOPHIL,[2],0%
same,ERYTHROCYTE COUNT,[2],5.44 x10E6/uL
same,HEMATOCRIT,[2],34.17%
same,HEMOGLOBIN,[2],13.22 G/DL
same,LEUKOCYTE COUNT,[2],7.03 x10E3/uL
same,LYMPHOCYTE,[2],90.17%
same,MEAN CORPUSCULAR HEMOGLOBIN,[2],24.38 pg
same,MEAN CORPUSCULAR HEMOGLOBIN CONCENTRATION,[2],38.7 G/DL
same,MEAN CORPUSCULAR VOLUME,[2],62.95 fL
same,MONOCYTE,[2],0.5%
same,NEUTROPHIL,[2],9.33%
same,NUCLEATED RED BLOOD CELLS,[2],0 /100WBC
same,PLATELET COUNT,[2],924.33 x10E3/uL
same,ALANINE AMINOTRANSFERASE,[2],52.5 u/L
same,ALBUMIN,[2],3.97 G/DL
same,ALKALINE PHOSPHATASE,[2],364.83 u/L
same,ASPARTATE AMINOTRANSFERASE,[2],82.5 u/L
same,BLOOD UREA NITROGEN,[2],17 mg/dL
same,CARBON DIOXIDE,[2],32.33 mmol/L
same,CHLORIDE,[2],99.6 MEQ/L
same,CHOLESTEROL,[2],75.83 mg/dL
same,CREATINE PHOSPHOKINASE,[2],419 u/L
same,CREATININE,[2],0.21 mg/dL
same,GLUCOSE,[2],155 mg/dL
same,LACTATE DEHYDROGENASE,[2],111.5 u/L
same,LIPASE,[2],11.33 u/L
same,PHOSPHORUS,[2],10.32 mg/dL
same,POTASSIUM,[2],5.37 MEQ/L
same,SODIUM,[2],144.64 MEQ/L
same,TOTAL BILIRUBIN,[2],0.18 mg/dL
same,TOTAL PROTEIN,[2],5.98 G/DL
same,URIC ACID,[2],0.62 mg/dL
same,ABSOLUTE BASOPHIL,[3],0 CELLS/uL
same,ABSOLUTE EOSINOPHIL,[3],50 CELLS/uL
same,ABSOLUTE LYMPHOCYTE,[3],6489 CELLS/uL
same,ABSOLUTE MONOCYTE,[3],75.67 CELLS/uL
same,ABSOLUTE SEGMENTED NEUTROPHIL,[3],285.33 CELLS/uL
same,BASOPHIL,[3],0%
same,EOSINOPHIL,[3],0.67%
same,ERYTHROCYTE COUNT,[3],5.18 x10E6/uL
same,HEMATOCRIT,[3],30.77%
same,HEMOGLOBIN,[3],12.07 G/DL
same,LEUKOCYTE COUNT,[3],6.9 x10E3/uL
same,LYMPHOCYTE,[3],94.33%
same,MEAN CORPUSCULAR HEMOGLOBIN,[3],23.3 pg
same,MEAN CORPUSCULAR HEMOGLOBIN CONCENTRATION,[3],39.2 G/DL
same,MEAN CORPUSCULAR VOLUME,[3],59.47 fL
same,MONOCYTE,[3],1%
same,NEUTROPHIL,[3],4%
same,NUCLEATED RED BLOOD CELLS,[3],0.33 /100WBC
same,PLATELET COUNT,[3],1561 x10E3/uL
same,ALANINE AMINOTRANSFERASE,[3],52.67 u/L
same,ALBUMIN,[3],4.03 G/DL
same,ALKALINE PHOSPHATASE,[3],301.33 u/L
same,ASPARTATE AMINOTRANSFERASE,[3],100 u/L
same,BLOOD UREA NITROGEN,[3],13.67 mg/dL
same,CARBON DIOXIDE,[3],35.67 mmol/L
same,CHLORIDE,[3],98 MEQ/L
same,CHOLESTEROL,[3],80.67 mg/dL
same,CREATINE PHOSPHOKINASE,[3],355.67 u/L
same,CREATININE,[3],0.15 mg/dL
same,GLUCOSE,[3],138.33 mg/dL
same,LACTATE DEHYDROGENASE,[3],108.33 u/L
same,LIPASE,[3],9 u/L
same,PHOSPHORUS,[3],10.47 mg/dL
same,POTASSIUM,[3],5.91 MEQ/L
same,SODIUM,[3],142.8 MEQ/L
same,TOTAL BILIRUBIN,[3],0.17 mg/dL
same,TOTAL PROTEIN,[3],6 G/DL
same,URIC ACID,[3],0.5 mg/dL
same,ABSOLUTE BASOPHIL,[4],0 CELLS/uL
same,ABSOLUTE EOSINOPHIL,[4],15.67 CELLS/uL
same,ABSOLUTE LYMPHOCYTE,[4],5856.67 CELLS/uL
same,ABSOLUTE MONOCYTE,[4],77.33 CELLS/uL
same,ABSOLUTE SEGMENTED NEUTROPHIL,[4],217 CELLS/uL
same,BASOPHIL,[4],0%
same,EOSINOPHIL,[4],0.33%
same,ERYTHROCYTE COUNT,[4],4.27 x10E6/uL
same,HEMATOCRIT,[4],27.3%
same,HEMOGLOBIN,[4],10.7 G/DL
same,LEUKOCYTE COUNT,[4],6.17 x10E3/uL
same,LYMPHOCYTE,[4],94%
same,MEAN CORPUSCULAR HEMOGLOBIN,[4],25.1 pg
same,MEAN CORPUSCULAR HEMOGLOBIN CONCENTRATION,[4],39.17 G/DL
same,MEAN CORPUSCULAR VOLUME,[4],64.03 fL
same,MONOCYTE,[4],1.33%
same,NEUTROPHIL,[4],4.33%
same,NUCLEATED RED BLOOD CELLS,[4],0 /100WBC
same,PLATELET COUNT,[4],1370.67 x10E3/uL
same,ALANINE AMINOTRANSFERASE,[4],42 u/L
same,ALBUMIN,[4],3.8 G/DL
same,ALKALINE PHOSPHATASE,[4],313 u/L
same,ASPARTATE AMINOTRANSFERASE,[4],132.33 u/L
same,BLOOD UREA NITROGEN,[4],18.67 mg/dL
same,CARBON DIOXIDE,[4],29.67 mmol/L
same,CHLORIDE,[4],99.67 MEQ/L
same,CHOLESTEROL,[4],65 mg/dL
same,CREATINE PHOSPHOKINASE,[4],254 u/L
same,CREATININE,[4],0.18 mg/dL
same,GLUCOSE,[4],187.33 mg/dL
same,LACTATE DEHYDROGENASE,[4],136.67 u/L
same,LIPASE,[4],9 u/L
same,PHOSPHORUS,[4],10.8 mg/dL
same,POTASSIUM,[4],5.21 MEQ/L
same,SODIUM,[4],143.2 MEQ/L
same,TOTAL BILIRUBIN,[4],0.2 mg/dL
same,TOTAL PROTEIN,[4],5.4 G/DL
same,URIC ACID,[4],0.73 mg/dL
